Holding throughout (assay type): cell-based
The target of assay [1] is SSTR3 (UniProt P32745). The assay can be described thus: cAMP functional agonist assay, CHO cells expressing SSTR3. The settings on record: CHO cells stably expressing SSTR3, cAMP. The method, then: (§1) Chinese hamster ovary (CHO) cells stably expressing one of the six human or rodent somatostatin receptor subtypes are grown to 85-100% confluence on standard tissue culture dishes in F12-Ham's growth media (Hyclone) with following additives: 10% donor calf serum (Hyclone), 200 U/mL penicillin (Hyclone), 200 μg/mL streptomycin (Hyclone), 20 mM HEPES (Hyclone), 200 μg/mL hygromycin Hyclone.
SSTR3, sequence (P32745 whole entry): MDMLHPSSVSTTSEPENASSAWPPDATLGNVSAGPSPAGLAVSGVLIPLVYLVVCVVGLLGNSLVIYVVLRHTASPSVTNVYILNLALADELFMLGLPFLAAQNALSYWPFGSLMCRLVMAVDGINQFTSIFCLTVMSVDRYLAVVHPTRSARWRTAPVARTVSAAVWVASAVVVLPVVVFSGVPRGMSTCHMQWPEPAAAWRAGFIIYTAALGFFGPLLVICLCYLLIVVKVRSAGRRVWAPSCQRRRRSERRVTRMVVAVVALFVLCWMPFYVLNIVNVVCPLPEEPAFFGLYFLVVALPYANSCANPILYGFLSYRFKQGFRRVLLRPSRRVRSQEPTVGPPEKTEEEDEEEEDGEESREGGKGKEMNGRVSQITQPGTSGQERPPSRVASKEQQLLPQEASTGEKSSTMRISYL
(§2) General overview: All SSTR subtypes are Gi coupled G-protein coupled receptors (GPCRs) that lead to decreases in intracellular cyclic AMP (cAMP) when activated by an agonist. Therefore, measurement of intracellular cAMP levels can be used to assess whether compounds of the invention are agonists of SSTR subtypes (John Kelly, Troy Stevens, W. Joseph Thompson, and Roland Seifert, Current Protocols in Pharmacology, 2005, 2.2.1-2.2). One example of an intracellular cAMP assay is described below.

Assay [2] concerns the target T1, SSTR5 (Homo sapiens, UniProt P35346).
T1 construct: expressed in transfected cells
Nature of the assay: cAMP functional agonist assay, CHO cells expressing SSTR5. The settings on record: CHO cells stably expressing SSTR5, cAMP. The method, then:
as §1, §2

Assay [3] concerns the target T2, SSTR1 (Homo sapiens, UniProt P30872).
T2 construct: expressed in transfected cells
Nature of the assay: cAMP functional agonist assay, CHO cells expressing SSTR1. How it is done: as §1
(§3) General overview: All SSTR subtypes are Gi coupled G-protein coupled receptors (GPCRs) that lead to decreases in intracellular cyclic AMP (cAMP) when activated by an agonist. […] One example of an intracellular cAMP assay is described below.

Assay [4] deals with T3, SSTR4 (Homo sapiens, UniProt P31391).
T3 construct: expressed in transfected cells
T3 sequence (P31391 whole entry): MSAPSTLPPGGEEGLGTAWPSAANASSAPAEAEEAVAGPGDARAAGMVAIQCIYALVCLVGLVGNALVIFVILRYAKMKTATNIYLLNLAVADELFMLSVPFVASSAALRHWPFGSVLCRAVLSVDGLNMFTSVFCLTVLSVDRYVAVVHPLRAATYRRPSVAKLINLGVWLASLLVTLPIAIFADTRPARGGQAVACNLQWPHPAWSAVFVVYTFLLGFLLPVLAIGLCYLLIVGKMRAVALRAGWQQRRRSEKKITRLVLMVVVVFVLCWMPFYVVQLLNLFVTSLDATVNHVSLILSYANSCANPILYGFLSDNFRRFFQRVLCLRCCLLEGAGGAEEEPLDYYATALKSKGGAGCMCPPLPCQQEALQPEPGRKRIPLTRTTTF
Nature of the assay: cAMP functional agonist assay, CHO cells expressing SSTR4. How it is done: as §1, §3

T2 sequence (P30872 whole entry): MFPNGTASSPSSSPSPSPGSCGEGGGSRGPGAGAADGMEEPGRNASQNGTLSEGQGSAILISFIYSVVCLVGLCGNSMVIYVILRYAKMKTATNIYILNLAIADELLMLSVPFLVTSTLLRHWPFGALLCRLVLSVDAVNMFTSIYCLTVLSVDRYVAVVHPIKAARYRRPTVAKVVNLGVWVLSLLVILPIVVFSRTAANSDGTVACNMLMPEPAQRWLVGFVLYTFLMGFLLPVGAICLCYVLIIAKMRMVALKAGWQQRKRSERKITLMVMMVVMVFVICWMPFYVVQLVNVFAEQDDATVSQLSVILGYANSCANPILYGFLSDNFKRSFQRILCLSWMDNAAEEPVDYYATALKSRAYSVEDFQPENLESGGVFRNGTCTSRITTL
T1 sequence (P35346 whole entry): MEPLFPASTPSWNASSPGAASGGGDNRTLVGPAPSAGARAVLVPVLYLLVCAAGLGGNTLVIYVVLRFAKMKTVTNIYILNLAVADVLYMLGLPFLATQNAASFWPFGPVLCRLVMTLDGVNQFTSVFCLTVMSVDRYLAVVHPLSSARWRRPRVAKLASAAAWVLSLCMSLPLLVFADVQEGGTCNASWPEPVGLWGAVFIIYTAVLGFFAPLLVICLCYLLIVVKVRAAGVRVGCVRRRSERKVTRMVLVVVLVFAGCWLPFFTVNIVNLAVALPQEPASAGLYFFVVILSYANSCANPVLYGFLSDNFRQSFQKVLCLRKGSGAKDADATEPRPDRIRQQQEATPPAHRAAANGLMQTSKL

As to `Cc1cc(C)cc(-c2cnc3ncn(-c4cccc(O)c4)c(=O)c3c2CN(C)C[C@H]2CCCCN2)c1` [Compound A-14, 6-(3,5-dimethylphenyl)-3-(3-hydroxyphenyl)-5-({methyl[(2R)-piperidin-2-ylmethyl]amino}methyl)-3H,4H-pyrido[2,3-d]pyrimidin-4-one], the EC50 (as a rule, the concentration needed to bring the measured effect to its halfway point) was under 100 nM in assay [1], over 10000 nM in assay [2], over 10000 nM in assay [3] and under 100 nM in assay [4].

In the case of `Cc1cc(C)cc(-c2cnc3ncn(-c4cccc(O)c4)c(=O)c3c2CN(C)C[C@@H]2CCCCN2)c1` [Compound A-15, 6-(3,5-dimethylphenyl)-3-(3-hydroxyphenyl)-5-({methyl[(2S)-piperidin-2-ylmethyl]amino}methyl)-3H,4H-pyrido[2,3-d]pyrimidin-4-one], the concentration for a half-maximal effect (EC50) in assay [1] was under 100 nM; in assay [2] it was 100 to 10000 nM; in assay [3], 100 to 10000 nM; in assay [4], under 100 nM.

Regarding `Cc1cc(C)cc(-c2cnc3ncn(-c4cccc(O)c4)c(=O)c3c2CN(C)C[C@H]2CCCN2)c1` [Compound A-16, 6-(3,5-dimethylphenyl)-3-(3-hydroxyphenyl)-5-({methyl[(2R)-pyrrolidin-2-ylmethyl]amino}methyl)-3H,4H-pyrido[2,3-d]pyrimidin-4-one], the EC50 in assay [1] is under 100 nM; in assay [2], over 10000 nM; in assay [3], over 10000 nM; in assay [4], under 100 nM.

On to `Cc1cc(Cl)cc(-c2cnc3ncn(-c4cccc(O)c4)c(=O)c3c2CN(C)C[C@@H]2CCCN2)c1` [Compound A-30, 6-(3-chloro-5-methylphenyl)-3-(3-hydroxyphenyl)-5-({methyl[(2S)-pyrrolidin-2-ylmethyl]amino}methyl)-3H,4H-pyrido[2,3-d]pyrimidin-4-one], for which the EC50 was under 100 nM in assay [1], 100 to 10000 nM in assay [2], 100 to 10000 nM in assay [3] and under 100 nM in assay [4].

Turning to `CN(Cc1c(-c2cc(F)cc(Cl)c2)cnc2ncn(-c3cccc(O)c3)c(=O)c12)C[C@@H]1CCCN1` [Compound A-35, 6-(3-chloro-5-fluorophenyl)-3-(3-hydroxyphenyl)-5-({methyl[(2S)-pyrrolidin-2-ylmethyl]amino}methyl)-3H,4H-pyrido[2,3-d]pyrimidin-4-one], the EC50 in assay [1] was under 100 nM; in assay [2], 100 to 10000 nM; in assay [3], 100 to 10000 nM; in assay [4], under 100 nM.

For `Cc1cc(F)cc(-c2cnc3ncn(-c4cccc(O)c4)c(=O)c3c2CN(C)C[C@@H]2CCCN2)c1` [Compound A-36, 6-(3-fluoro-5-methylphenyl)-3-(3-hydroxyphenyl)-5-({methyl[(2S)-pyrrolidin-2-ylmethyl]amino}methyl)-3H,4H-pyrido[2,3-d]pyrimidin-4-one], the EC50 is 100 to 10000 nM in assay [1], over 10000 nM in assay [2], 100 to 10000 nM in assay [3] and under 100 nM in assay [4].

Take `CN(Cc1c(-c2cc(Cl)cc(CO)c2)cnc2ncn(-c3cccc(O)c3)c(=O)c12)C[C@@H]1CCCN1` [Compound A-38, 6-[3-chloro-5-(hydroxymethyl)phenyl]-3-(3-hydroxyphenyl)-5-({methyl[(2S)-pyrrolidin-2-ylmethyl]amino}methyl)-3H,4H-pyrido[2,3-d]pyrimidin-4-one]: the EC50 in assay [1] was under 100 nM; in assay [2] it was 100 to 10000 nM; in assay [3] it was 100 to 10000 nM; in assay [4] it was under 100 nM.

Consider `Cc1cc(C)cc(-c2cnc3ncn(-c4cccc(C(N)=O)c4)c(=O)c3c2CN(C)C[C@@H]2CCCN2)c1` [Compound A-39, 3-[6-(3,5-dimethylphenyl)-5-({methyl[(2S)-pyrrolidin-2-ylmethyl]amino}methyl)-4-oxo-3H,4H-pyrido[2,3-d]pyrimidin-3-yl]benzamide], for which the EC50 is 100 to 10000 nM in assay [1], over 10000 nM in assay [2], over 10000 nM in assay [3] and under 100 nM in assay [4].

The values above are taken from patent US9957267B2, “Somatostatin modulators and uses thereof” (Crinetics Pharmaceuticals, Inc., priority 2015, dated 2018).
